The text below walks through data of patent US9730445B2, “Herbicidal compositions comprising 4-amino-3-chloro-5-fluoro-6-(4-chloro-2-fluoro-3-methoxyphenyl) pyridine-2-carboxylic acid or a derivative thereof and fungicides” (DOW AGROSCIENCES LLC, priority 2013, dated 2017).

This experiment has as its system FIMMI. The experiment in a line: In-water applied weed control, transplanted paddy rice (greenhouse). The format is in vivo, Fimbristylis miliacea (L.) Vahl (globe fringerush). On the procedure: Weed seeds or nutlets of the desired test plant species were planted in puddled soil (mud) prepared by mixing a shredded, non-sterilized mineral soil (50.5 percent silt, 25.5 percent clay, and 24 percent sand, with a pH of about 7.6 and an organic matter content of about 2.9 percent) and water at a 1:1 volumetric ratio. The prepared mud was dispensed in 365 mL aliquots into 16-ounce (oz.) non-perforated plastic pots with a surface area of 86.59 square centimeters (cm^2) leaving a headspace of 3 centimeters (cm) in each pot. Rice seeds were planted in Sun Gro MetroMix® 306 planting mixture, which typically has a pH of 6.0 to 6.8 and an organic matter content of about 30 percent, in plastic plug trays. Seedlings at the second or third leaf stage of growth were transplanted into 860 mL of mud contained in 32-oz. non-perforated plastic pots with a surface area of 86.59 cm^2 4 days prior to herbicide application. The paddy was created by filling the headspace of the pots with 2.5 to 3 cm of water. When required to ensure good germination and healthy plants, a fungicide treatment and/or other chemical or physical treatment was applied. The plants were grown for 4-22 days in a greenhouse with an approximate 14 hour (h) photoperiod which was maintained at about 29° C. during the day and about 26° C. during the night. Nutrients were added as Osmocote® (17:6:10, N:P:K+minor nutrients) at 2 g per cup. Water was added on a regular basis to maintain the paddy flood, and supplemental lighting was provided with overhead metal halide 1000-Watt lamps as necessary. The plants were employed for testing when they reached the first through fourth true leaf stage. […]
Treatment requirements for each compound or fungicidal component were calculated based upon the rates being tested, the concentration of active ingredient or acid equivalent in the formulation, an application volume of 2 mL per component per pot, and an application area of 86.59 cm^2 per pot.
For formulated compounds, a measured amount was placed in an individual 100 or 200 mL glass vial and was dissolved in a volume of 1.25% (v/v) Agri-Dex® crop oil concentrate to obtain application solutions. […]
The treated plants and control plants were placed in a greenhouse as described above and water was added as needed to maintain a paddy flood. After approximately 3 weeks the condition of the test plants as compared with that of the untreated plants was determined visually and scored on a scale of 0 to 100 percent where 0 corresponds to no injury or growth inhibition and 100 corresponds to complete kill. […]

Structures are written as SMILES.

Consider `COc1c(Cl)ccc(-c2nc(C(=O)OCc3ccccc3)c(Cl)c(N)c2F)c1F` [Compound A Benzyl Ester], for which the “Visual Weed Control (%) - 22 DAA FIMMI Obs” value came out at 50% (Compound A Benzyl Ester 4.38 g ae/ha), 80% (Compound A Benzyl Ester 8.75 g ae/ha) and 100% (Compound A Benzyl Ester 17.5 g ae/ha).
